Converted amounts (≈) assume the structure as drawn.

Usually CC50 stands for the concentration at which the toxic effect on the cells reaches its halfway point. The low end stands for greater toxicity to the cells, the high end for lower toxicity to the cells. Usually EC50 stands for the concentration needed to bring the measured effect to its halfway point. The low end stands for higher potency in that assay, the high end for lower potency in that assay. Broadly, the IC50 is the point on the concentration scale where inhibition reaches its midpoint.

In one data set the test system is heparin. In words: Direct interaction of inhibitor compounds with immobilized heparin (pre-incubation versus co-incubation with GBVP). To be noted: for Inhibition (%) Co-incubation: GBVP co-incubated with compound for 90 min in control wells; for Inhibition (%) Pre-Incubation: compound pre-incubated with immobilized heparin 90 min, washed, then GBVP added. Type of data set: binding. As for the experimental part: Compounds found to be suitable for further development and chemical optimization may be further subjected to a second screening, identifying those that directly bind to heparin. Individual compounds are incubated with immobilized heparin in the absence of CMV envelope glycoprotein B. After washing of the plates to remove all unbound compound, CMV envelope glycoprotein B is added. At this time, in separate wells, CMV envelope glycoprotein B is co-incubated with the test compounds and the standard assay protocol is followed. Test compounds which bind directly and irreversibly to heparin are identified by comparing the results of pre-incubation versus co-incubation experiments.
96-well ELISA plates are coated with Heparin-BSA, then blocked with BSA as described in Example 1. GBVP Hit Compounds, at final concentration 0.1-200 μM, are incubated in the ELISA plate for 90 min, and then washed with incubation buffer. After washing, GBVP is added to the wells pre-incubated with compounds. At the same time, in separate control wells, GBVP is co-incubated with Hit Compounds for 90 min. Following the incubation, GBVP bound to the plate is quantified by antibody conjugated to horse radish peroxidase and OD measurement as described in Example 1.

Data set [1] is described as follows: Neutral red uptake cytotoxicity assay. As to conditions: human.
For data set [2], the system named is Varicella Zoster Virus (VZV). In words: Cytopathic effect (CPE) inhibition assay on Varicella Zoster Virus in HFF cells. Type of data set: cell-based. As to conditions: Human alphaherpesvirus 3, HFF, 240 h, ten days incubation. As to the method:
Cytopathic effect (CPE) inhibition assays were performed on Varicella Zoster Virus (VZV) as follows. Low passage human foreskin fibroblast (HFF) cells were seeded into 96-well tissue culture plates 24 hours prior to use at a cell concentration of 2.5×10^5 cells per ml in 0.1 ml of MEM supplemented with 10% FBS. The cells were then incubated for 24 hours at 37° C. in a C02 incubator. After incubation, the medium was removed and 125 μl of candidate drug in growth medium (MEM with 10% FBS) was added to the first row in triplicate wells, all other wells containing 100 μl of media. The drug in the first row of wells was then diluted serially 1:5 throughout the remaining wells by transferring 25 μl using the Cetus liquid handling machine. After dilution of drug, 100 μl growth medium containing virus (2500 PFU per well) was added to each well, excluding cell control wells, which received 100 μl of growth medium only. The plates were then incubated at 37° C. in a CO2 incubator for ten days. After the incubation period, media was aspirated and the cells stained with a 0.1% crystal violet solution for four hours. The stain was then removed and the plates rinsed using tap water until all excess stain was removed. The plates were allowed to dry for 24 hours and then read on a BioTek plate reader at 620 nm. […]
In general terms: Protection from cytopathic effect is a common read-out in antiviral testing.

For data set [3], the system named is bovine viral diarrhea virus. Put plainly: Inhibition of bovine viral diarrhea virus in MDBK cells. Type of data set: cell-based. From the text: (§1) Bovine viral diarrhea virus is related to HCV and may serve as a surrogate model for human hepatitis C virus (Yanagida K., et al., ibid).
A short description of data set [4]: Cytotoxicity in MDBK cells (IC50 used for SI). Type of data set: cell-based. As to conditions: bovine, MDBK (Madin-Darby bovine kidney) cells, value paired with EC50 to give SI.
Description: as §1

In data set [5] the target is T1, CMV envelope glycoprotein B binding to immobilized heparin (Human cytomegalovirus, UniProt P06473).
T1 construct: purchased Research Diagnostics, INC; RDI-RCMVAG-B
Put plainly: Inhibition of CMV envelope glycoprotein B binding to immobilized heparin by soluble heparin. To be noted: soluble heparin 0.2-10 mg/ml, FIG. 2. From the text:
The present invention discloses for the first time the use of CMV envelope glycoprotein B for compound screening and for direct targeting of GAG binding sites. The screening method of the present invention is based on an ELISA assay for CMV envelope glycoprotein B interaction with heparin on 96-well plates, suitable for screening compound collections, newly developed by the inventors of the present invention. The assay measures binding of CMV envelope glycoprotein B to immobilized heparin. The amount of bound CMV envelope glycoprotein B is determined by an ELISA assay using a monoclonal antibody conjugated to horseradish peroxidase. […] Soluble heparin was found according to the present invention to inhibit CMV envelope glycoprotein B binding to immobilized heparin (FIG. 2). This method can be used with other specific GBVPs such as HSV-1 glycoproteins B, C, and D, HHV-7 glycoprotein B, and HCV envelope protein. Additionally, other GAGs are capable of replacing heparin in this kind of assay. […]
Porcine intestinal mucosa heparin conjugated to Bovine Serum Albumin (Heparin-BSA; Sigma Cat. No. H0403) at 5 mg/ml in Phosphate Buffered Saline (PBS; pH 6.5) was added to a 96-well polystyrene ELISA plate (NLNC Cat. No. 442404; 0.1 ml per well) and incubated over night at 4° C. […] The Optical Density (OD) of the samples was measured at 450 nm using an ELISA plate reader (Dynatech MR5000).

T1 sequence (P06473 32-906): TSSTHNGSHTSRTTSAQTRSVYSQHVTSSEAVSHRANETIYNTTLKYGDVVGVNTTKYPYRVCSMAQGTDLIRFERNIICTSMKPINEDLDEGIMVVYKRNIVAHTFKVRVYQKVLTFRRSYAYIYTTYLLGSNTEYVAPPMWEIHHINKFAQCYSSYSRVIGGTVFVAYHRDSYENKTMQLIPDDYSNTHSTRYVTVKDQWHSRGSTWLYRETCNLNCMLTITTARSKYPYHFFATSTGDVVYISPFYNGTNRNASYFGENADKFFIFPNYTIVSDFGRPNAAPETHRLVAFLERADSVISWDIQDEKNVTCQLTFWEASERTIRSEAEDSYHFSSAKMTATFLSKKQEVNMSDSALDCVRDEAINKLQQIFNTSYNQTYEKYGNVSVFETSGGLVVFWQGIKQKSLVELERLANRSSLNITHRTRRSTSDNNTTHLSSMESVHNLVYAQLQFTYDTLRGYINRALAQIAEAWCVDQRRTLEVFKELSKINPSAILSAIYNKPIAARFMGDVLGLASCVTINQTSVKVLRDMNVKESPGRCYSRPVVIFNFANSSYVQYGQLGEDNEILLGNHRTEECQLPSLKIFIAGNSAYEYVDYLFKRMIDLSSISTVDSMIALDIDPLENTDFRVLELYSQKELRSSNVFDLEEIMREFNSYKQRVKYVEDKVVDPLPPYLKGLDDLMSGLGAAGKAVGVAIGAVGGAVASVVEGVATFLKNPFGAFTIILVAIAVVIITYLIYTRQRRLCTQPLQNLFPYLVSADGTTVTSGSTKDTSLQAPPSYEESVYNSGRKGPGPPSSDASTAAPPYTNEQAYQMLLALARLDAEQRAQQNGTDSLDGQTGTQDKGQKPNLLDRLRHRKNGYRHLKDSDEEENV

Turning to `Cc1ccc2nc(N3CCN(C)CC3)c(C=C3SC(=S)N(Cc4ccccc4)C3=O)c(=O)n2c1` [Compound 5, 4H-Pyrido[1,2-a]pyrimidin-4-one, 3-[(3-phenylmethyl-4-oxo-2-thioxo-5-thiazolidinylidene)methyl]-2-(4-methyl-1-piperazinyl)-7-methyl-], in the data set on heparin, the “Inhibition (%) Co-incubation” value is on record as 66% and the “Inhibition (%) Pre-Incubation” value was 68%.
Molecule `CCCCN1C(=O)/C(=C/c2c(N3CCN(C)CC3)nc3c(C)cccn3c2=O)SC1=S` [Compound 10, 4H-Pyrido[1,2-a]pyrimidin-4-one, 3-[(3-butyl-4-oxo-2-thioxo-5-thiazol-idinylidene)methyl]-9-methyl-2-(4-methyl-1-piperazinyl)-] yielded a cytotoxic concentration (CC50) at 7 days in data set [1] of 11.8 µg/mL (≈ 25.8 µM). This molecule returned an EC50 in data set [2] of 3.2 µg/mL (≈ 6.99 µM). For the same molecule, in the data set with heparin, the “Inhibition (%) Co-incubation” value was found to be 80% and the “Inhibition (%) Pre-Incubation” value was 73%.
As to `O=C(CN1C(=O)C(=C2SC(=S)N(CCS(=O)(=O)O)C2=O)c2ccccc21)Nc1cccc(C(F)(F)F)c1` [Compound 11, 5-[1,2-dihydro-2-oxo-1-[2-oxo-2-[[3-(trifluoromethyl)phenyl]amino]ethyl]-3H-indol-3-ylidene]-4-oxo-2-thioxo-3-thiazolidineethanesulfonic acid], the CC50 at 7 days in data set [1] is over 100 µg/mL. In data set [2], this molecule returned an EC50 of under 0.03 µg/mL.
For `O=C1C(=Cc2c(NCCCn3ccnc3)nc3ccccn3c2=O)SC(=S)N1Cc1ccccc1` [Compound 25, 4H-Pyrido[1,2-a]pyrimidin-4-one, 3-[(3-phenylmethyl-4-oxo-2-thioxo-5-thiazolidinylidene)methyl]-2-[[3-(1H-imidazol-1-yl)propyl]amino]-], in the data set on heparin, the “Inhibition (%) Co-incubation” value was 67% and the “Inhibition (%) Pre-Incubation” value turned out to be 89%.
On to `Cc1cccn2c(=O)c(C=C3SC(=S)N(Cc4ccccc4)C3=O)c(NCCN3CCOCC3)nc12` [Compound 26, 4H-Pyrido[1,2-a]pyrimidin-4-one, 3-[[3-(phenylmethyl)-4-oxo-2-thioxo-5-thiazolidinylidene]methyl]-2-[[2-(4-morpholinyl)ethyl]amino]-9-methyl-], for which, in data set [3], the SI is over 17. The EC50 in data set [3] (Bovine viral diarrhea virus isolates and strains) came to 6 µM. In data set [4], this molecule came in with an IC50 of over 100 µM.
In the case of heparin [Soluble heparin], the “Inhibition of CMV envelope glycoprotein B binding to immobilized heparin” value in data set [5] is reported as “inhibit”.

The values above are taken from US20070179137A1, “Screening of anti-viral drugs and pharmaceuticals composition containing thiazolidinone derivatives” (priority 2004, published 2007).
